# Results taken from patent US20020131953A1, “In situ langerhans cell vaccine” (UT SOUTHWESTERN MEDICAL CENTER, priority 2001, published 2002).
# B1: RANTES (protein, UniProt P13501 24-91, looked up)
# C-C motif chemokine 5: SPYSSDTTPCCFAYIARPLPRAHIKEYFYTSGKCSNPAVVFVTRKNRQVCANPEKKWVREYINSLEMS
# notes: chemokine tested for promoting migration of mature DC
# B2: MIP-1γ (protein, UniProt P51670 22-122, looked up)
# C-C motif chemokine 9: QITHATETKEVQSSLKAQQGLEIEMFHMGFQDSSDCCLSYNSRIQCSRFIGYFPTSGGCTRPGIIFISKRGFQVCANPSDRRVQRCIERLEQNSQPRTYKQ
# notes: as for B1
# B3: MIP-1α (protein, UniProt P10147 24-92, looked up)
# C-C motif chemokine 3: SLAADTPTACCFSYTSRQIPQNFIADYFETSSQCSKPGVIFLTKRSRQVCADPSEEWVQKYVSDLELSA
# notes: as for B1
# How the values were obtained:
# Langerhans cells (LC) = experiment: LC entrapment after subcutaneous rod implantation and DNFB painting; format: in vivo, BALB/c mice; details: 24 hours after DNFB painting over BSA rod implantation sites
# Protocol: After 24 hr pre-incubation in PBS at 37° C., a MIP-3β or BSA rod was cut into 4 short pieces (2.5 mm length) and implanted subcutaneously into a mouse with 200 μl of PBS using a 20G1/2 needle.
# In an attempt to induce LC maturation and elevate MIP-3β responsiveness, DNFB was applied over the implantation sites.
# T cells = experiment: In vitro Transwell migration of T cells toward chemokine; format: cell-based, BALB/c mice; details: relative to mature DCs (FIG. 1a)
# Protocol: (§1) Several chemokines were tested in an in vitro transwell system for their ability to promote migration of mature DC, including MIP-1α, MIP-1γ, MCP-3, RANTES and MIP-3β. In vitro cell migration assays were performed by using 6.5 mm Transwell units (Costar, Cambridge, Mass.). Spleen DC or T cells prepared from BALB/c mice were placed in the upper chamber of the transwell system and chemokine (e.g., MIP-3β) was added to the lower chamber of the transwell system. After 2 hr incubation at 37° C., the migratory cells were harvested from the lower chambers, and the % DC (or T cell) migration was calculated by dividing the output CD11c^+ (or CD3^+) cells by the input CD11c^+ (or CD3^+) cells.
# Spleen DC = experiment: In vitro Transwell migration of spleen DC toward chemokine; format: cell-based, BALB/c mice; details: for % specific migration: spleen cell migration, transwell, 2 hr incubation at 37° C.
# Protocol: as §1
# T cell migration = experiment: Biological activity of MIP-3β released from EVA rods (T cell chemotaxis assay); format: cell-based; details: MIP-3β liberated from the EVA polymer, Day 3 samples tested at 33 or 100% (vol/vol)
# Protocol: To determine whether the released MIP-3β was biologically active, the same samples as used above were tested at 33 or 100% (vol/vol) for their biological activities to promote T cell migration (FIG. 1e). DNFB-induced LC emigration was examined by counting the numbers of IA^+ and DEC205^+ epidermal cells after whole mount epidermal staining. See Mummert et al., 2000, J. Exp. Med. 192:769-779.
Molecule,% specific migration (Spleen DC),also measured
"O=[N+]([O-])c1ccc(F)c([N+](=O)[O-])c1 [DNFB, dinitroflourobenzene]",,reduction in surface LC densities (Langerhans cells (LC)): 25-30%
MIP-3β,13.2%,concentrations required for recruiting T cells (T cells): much higher concentrations were required; concentrations promoting migration of mature DCs (Spleen DC; chemokine in lower chamber (FIG. 1a)): 3 to 10 ng/mL; potency in promoting migration of CD11c-positive splenic dendritic cell fractions (Spleen DC; compared among the chemokines tested): most potent; biological activity in the chemotaxis assay (T cell migration): significant biological activities
monocyte chemotactic protein-3 [MCP-3],18.2%,
B1,9.1%,
B2,5.4%,
B3,8.2%,
